The source of these data is paper doi:10.1101/2023.11.24.568596v1 (biorxiv, 2023).

Targets include CDKL1 (Homo sapiens, UniProt Q00532); DAPK1 (Homo sapiens, UniProt P53355); MARK3 (Homo sapiens, UniProt P27448); CLK1 (Homo sapiens, UniProt P49759).
What all share (conditions): binder
The target of another assay is T1, MAP2K6 (Homo sapiens, UniProt P52564).
T1 sequence (P52564 1-334): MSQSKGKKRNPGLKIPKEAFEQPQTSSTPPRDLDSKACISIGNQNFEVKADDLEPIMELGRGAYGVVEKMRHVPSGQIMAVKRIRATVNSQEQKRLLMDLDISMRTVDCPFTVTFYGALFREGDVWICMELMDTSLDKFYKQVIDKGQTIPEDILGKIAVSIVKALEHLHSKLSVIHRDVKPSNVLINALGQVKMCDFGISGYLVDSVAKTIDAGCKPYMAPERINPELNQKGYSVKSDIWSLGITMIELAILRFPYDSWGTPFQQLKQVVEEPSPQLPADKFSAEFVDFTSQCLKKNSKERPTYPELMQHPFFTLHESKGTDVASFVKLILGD

For a further assay, the target named is T2, NEK1 (Homo sapiens, UniProt Q96PY6).
T2 sequence (Q96PY6 1-1258): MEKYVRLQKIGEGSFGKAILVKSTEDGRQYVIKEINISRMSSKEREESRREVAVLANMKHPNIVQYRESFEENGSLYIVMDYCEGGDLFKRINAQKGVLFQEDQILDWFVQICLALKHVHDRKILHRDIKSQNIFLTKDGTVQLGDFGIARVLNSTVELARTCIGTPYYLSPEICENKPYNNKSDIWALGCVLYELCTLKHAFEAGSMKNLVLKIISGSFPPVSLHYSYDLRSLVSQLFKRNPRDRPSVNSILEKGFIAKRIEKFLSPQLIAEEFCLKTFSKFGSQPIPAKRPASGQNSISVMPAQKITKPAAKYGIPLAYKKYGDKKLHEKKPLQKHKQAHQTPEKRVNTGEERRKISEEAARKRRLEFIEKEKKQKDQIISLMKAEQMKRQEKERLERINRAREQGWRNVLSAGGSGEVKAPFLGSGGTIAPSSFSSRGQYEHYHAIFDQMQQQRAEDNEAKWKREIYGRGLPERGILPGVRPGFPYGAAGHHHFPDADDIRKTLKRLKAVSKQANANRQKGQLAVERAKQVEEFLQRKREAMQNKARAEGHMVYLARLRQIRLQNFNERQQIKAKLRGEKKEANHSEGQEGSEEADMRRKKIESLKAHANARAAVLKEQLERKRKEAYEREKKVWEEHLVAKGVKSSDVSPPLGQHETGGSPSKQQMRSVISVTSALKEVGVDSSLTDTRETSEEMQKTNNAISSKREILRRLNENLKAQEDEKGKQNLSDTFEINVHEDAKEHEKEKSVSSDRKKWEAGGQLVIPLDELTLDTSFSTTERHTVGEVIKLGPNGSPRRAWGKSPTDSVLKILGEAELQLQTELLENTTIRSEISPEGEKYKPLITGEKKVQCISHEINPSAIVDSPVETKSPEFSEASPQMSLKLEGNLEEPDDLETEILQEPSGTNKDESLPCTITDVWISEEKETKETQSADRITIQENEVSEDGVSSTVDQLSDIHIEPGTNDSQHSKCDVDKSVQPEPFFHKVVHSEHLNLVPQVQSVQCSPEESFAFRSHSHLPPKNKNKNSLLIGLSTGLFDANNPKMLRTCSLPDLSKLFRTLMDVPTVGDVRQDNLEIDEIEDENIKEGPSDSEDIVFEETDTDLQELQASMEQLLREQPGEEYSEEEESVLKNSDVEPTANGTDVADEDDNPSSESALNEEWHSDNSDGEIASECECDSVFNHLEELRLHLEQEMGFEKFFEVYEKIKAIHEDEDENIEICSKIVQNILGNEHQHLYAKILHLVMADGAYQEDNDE

The target in another assay is T3, DMPK1 (Homo sapiens, UniProt Q09013).
T3 sequence (Q09013 1-629): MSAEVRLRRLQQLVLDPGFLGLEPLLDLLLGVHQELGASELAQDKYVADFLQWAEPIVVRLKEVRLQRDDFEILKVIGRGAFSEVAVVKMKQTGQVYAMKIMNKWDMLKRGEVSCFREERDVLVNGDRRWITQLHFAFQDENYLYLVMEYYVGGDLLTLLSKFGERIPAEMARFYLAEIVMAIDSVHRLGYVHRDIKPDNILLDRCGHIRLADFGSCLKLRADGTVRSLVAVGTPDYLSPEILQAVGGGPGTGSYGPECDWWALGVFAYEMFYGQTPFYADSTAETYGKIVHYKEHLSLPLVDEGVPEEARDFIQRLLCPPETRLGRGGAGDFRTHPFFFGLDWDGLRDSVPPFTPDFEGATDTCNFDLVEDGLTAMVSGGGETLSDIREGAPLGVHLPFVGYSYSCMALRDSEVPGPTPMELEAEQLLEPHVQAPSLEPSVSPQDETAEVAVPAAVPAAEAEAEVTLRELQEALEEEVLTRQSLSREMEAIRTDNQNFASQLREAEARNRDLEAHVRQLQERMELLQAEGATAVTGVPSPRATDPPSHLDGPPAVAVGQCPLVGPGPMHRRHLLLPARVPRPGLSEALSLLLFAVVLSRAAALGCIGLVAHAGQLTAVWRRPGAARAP

Molecules are shown by their SMILES.

Sequence of MARK3 (P27448 whole entry): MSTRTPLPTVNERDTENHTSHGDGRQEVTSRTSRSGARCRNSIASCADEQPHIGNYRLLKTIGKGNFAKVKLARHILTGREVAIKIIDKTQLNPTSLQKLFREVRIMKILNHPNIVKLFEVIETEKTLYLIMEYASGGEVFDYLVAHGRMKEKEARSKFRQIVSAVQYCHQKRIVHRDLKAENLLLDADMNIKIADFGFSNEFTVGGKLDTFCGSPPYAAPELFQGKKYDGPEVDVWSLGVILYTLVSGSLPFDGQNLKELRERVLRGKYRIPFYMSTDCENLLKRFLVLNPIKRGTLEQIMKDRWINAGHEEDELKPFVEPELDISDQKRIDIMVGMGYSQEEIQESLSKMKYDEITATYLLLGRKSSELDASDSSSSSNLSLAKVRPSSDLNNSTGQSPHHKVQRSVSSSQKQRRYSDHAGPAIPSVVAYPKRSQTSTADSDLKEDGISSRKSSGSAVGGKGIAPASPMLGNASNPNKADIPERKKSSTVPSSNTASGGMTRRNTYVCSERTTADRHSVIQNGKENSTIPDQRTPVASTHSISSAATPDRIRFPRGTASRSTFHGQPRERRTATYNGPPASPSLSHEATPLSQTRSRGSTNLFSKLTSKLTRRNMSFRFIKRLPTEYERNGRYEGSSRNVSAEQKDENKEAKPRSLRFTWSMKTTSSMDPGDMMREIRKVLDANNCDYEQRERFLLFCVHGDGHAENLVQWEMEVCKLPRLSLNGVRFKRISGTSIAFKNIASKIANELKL
Sequence of CDKL1 (Q00532 whole entry): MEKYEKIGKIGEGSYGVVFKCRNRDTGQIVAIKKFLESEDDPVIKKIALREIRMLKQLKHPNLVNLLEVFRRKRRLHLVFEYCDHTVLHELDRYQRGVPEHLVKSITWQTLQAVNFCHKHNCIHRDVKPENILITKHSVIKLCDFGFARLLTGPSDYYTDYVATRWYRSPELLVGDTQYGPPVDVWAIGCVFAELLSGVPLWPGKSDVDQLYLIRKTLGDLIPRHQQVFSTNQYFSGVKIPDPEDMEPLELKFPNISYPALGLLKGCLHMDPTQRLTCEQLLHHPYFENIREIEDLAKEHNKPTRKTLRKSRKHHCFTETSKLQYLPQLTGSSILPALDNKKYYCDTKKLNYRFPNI
Sequence of CLK1 (P49759 whole entry): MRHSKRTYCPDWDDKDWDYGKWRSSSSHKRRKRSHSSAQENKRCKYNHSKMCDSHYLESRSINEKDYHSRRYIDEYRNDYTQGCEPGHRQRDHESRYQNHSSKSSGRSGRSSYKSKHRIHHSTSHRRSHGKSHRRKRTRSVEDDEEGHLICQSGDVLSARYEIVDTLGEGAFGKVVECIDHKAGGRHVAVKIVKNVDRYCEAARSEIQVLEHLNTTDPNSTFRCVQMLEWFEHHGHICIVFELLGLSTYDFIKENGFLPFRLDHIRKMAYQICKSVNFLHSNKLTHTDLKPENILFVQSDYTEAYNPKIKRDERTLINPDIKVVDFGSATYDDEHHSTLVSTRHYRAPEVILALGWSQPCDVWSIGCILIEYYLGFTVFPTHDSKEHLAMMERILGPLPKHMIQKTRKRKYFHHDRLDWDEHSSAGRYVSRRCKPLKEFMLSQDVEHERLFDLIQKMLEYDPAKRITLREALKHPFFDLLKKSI
Sequence of DAPK1 (P53355 whole entry): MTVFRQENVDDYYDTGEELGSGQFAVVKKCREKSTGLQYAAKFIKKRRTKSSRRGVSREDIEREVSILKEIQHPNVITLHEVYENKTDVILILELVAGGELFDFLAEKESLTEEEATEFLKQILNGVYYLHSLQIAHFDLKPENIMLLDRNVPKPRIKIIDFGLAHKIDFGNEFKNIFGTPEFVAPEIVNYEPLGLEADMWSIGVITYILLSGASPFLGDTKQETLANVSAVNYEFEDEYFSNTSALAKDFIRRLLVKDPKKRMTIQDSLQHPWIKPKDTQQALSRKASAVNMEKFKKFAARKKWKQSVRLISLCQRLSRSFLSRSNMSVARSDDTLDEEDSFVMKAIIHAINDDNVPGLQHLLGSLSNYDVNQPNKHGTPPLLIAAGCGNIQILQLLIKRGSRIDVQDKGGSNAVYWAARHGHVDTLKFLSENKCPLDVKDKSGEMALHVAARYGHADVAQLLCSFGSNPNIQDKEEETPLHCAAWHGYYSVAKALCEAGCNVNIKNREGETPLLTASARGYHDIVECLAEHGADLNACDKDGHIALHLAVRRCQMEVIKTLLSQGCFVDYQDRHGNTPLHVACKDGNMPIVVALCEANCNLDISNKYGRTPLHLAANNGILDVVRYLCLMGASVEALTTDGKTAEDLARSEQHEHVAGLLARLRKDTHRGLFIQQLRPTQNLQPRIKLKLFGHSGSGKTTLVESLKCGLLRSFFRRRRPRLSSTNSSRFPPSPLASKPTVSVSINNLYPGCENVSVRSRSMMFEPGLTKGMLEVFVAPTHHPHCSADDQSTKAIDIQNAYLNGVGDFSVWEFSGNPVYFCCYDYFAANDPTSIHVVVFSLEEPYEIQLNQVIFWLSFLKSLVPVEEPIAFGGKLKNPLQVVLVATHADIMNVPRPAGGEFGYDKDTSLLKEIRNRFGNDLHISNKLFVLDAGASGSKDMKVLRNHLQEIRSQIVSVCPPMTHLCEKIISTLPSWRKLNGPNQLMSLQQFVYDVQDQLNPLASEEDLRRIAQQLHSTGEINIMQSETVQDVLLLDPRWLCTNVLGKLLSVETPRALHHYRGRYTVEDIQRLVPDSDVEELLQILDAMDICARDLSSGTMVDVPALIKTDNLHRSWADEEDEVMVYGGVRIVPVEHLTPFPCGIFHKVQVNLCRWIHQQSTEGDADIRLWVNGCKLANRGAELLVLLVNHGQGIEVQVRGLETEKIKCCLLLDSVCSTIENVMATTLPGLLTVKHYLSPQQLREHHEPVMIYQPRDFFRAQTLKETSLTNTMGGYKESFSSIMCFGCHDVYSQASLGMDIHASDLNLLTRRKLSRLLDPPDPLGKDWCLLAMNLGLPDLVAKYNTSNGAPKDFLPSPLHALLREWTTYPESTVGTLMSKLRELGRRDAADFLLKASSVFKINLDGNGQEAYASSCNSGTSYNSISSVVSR

For `CNc1ncc2cc(-c3ccc(-c4cccc(C)n4)cc3Cl)c(=O)n(CCCCN)c2n1` [compound 20, MRLW5], the “ΔTm MRLW5 (20)” value is -0.1 °C at CDKL1, 5.7 °C at MAP2K6, -0.8 °C on DAPK1 and -1.9 °C at NEK1.

In the case of `CNc1ncc2cc(-c3ccc(-c4cccc(C)n4)cc3Cl)c(=O)n(CCC3CCNCC3)c2n1` [compound 22, 6-(2-Chloro-4-(6-methylpyridin-2-yl)phenyl)-2-(methylamino)-8-(2-(piperidin-4-yl)ethyl)pyrido[2,3-d]pyrimidin-7(8H)-one], the “ΔTm 22” value was 0.4 °C at CDKL1, 5.6 °C at MAP2K6, -0.8 °C on DAPK1 and -2.0 °C at NEK1.

`CNc1ncc2cc(-c3ccc(-c4cccc(C)n4)cc3Cl)c(=O)n(C[C@H]3CC[C@H](N)CC3)c2n1` [compound 23, 23]: the “ΔTm 23” value at CDKL1 is 0.1 °C; at MAP2K6 it was 8.3 °C; at DAPK1, -0.4 °C; at NEK1 it was -2.7 °C.

`Cc1cccc(-c2ccc(-c3cc4cnc(NC(CO)CO)nc4n(CCCCN)c3=O)c(Cl)c2)n1` [compound 24, 8-(4-Aminobutyl)-6-(2-chloro-4-(6-methylpyridin-2-yl)phenyl)-2-((1,3-dihydroxypropan-2-yl)amino)pyrido[2,3-d]pyrimidin-7(8H)-one]: the “ΔTm MR24 (24)” value is 0.9 °C on CDKL1, 2.8 °C on MAP2K6, -0.8 °C on DAPK1 and 0.0 °C at NEK1.

Regarding `Cc1cccc(-c2ccc(-c3cc4cnc(NCCCc5ccc(N)cc5)nc4n(CCCCN)c3=O)c(Cl)c2)n1` [compound 25, 8-(4-Aminobutyl)-2-((3-(4-aminophenyl)propyl)amino)-6-(2-chloro-4-(6-methylpyridin-2-yl)phenyl)pyrido[2,3-d]pyrimidin-7(8H)-one], the “ΔTm 25” value at CDKL1 is 2.1 °C; on MAP2K6, 8.3 °C; at DAPK1 it was -1.0 °C; on NEK1 it was -1.2 °C.

Turning to `Cc1cccc(-c2ccc(-c3cc4cnc(NCCCN5CCOCC5)nc4n(CCCCN)c3=O)c(Cl)c2)n1` [compound 26, MR26], the “ΔTm MR26 (26)” value is 0.5 °C at CDKL1, 3.1 °C at MAP2K6, -0.7 °C at DAPK1 and 0.1 °C at NEK1.

`Cc1cccc(-c2ccc(-c3cc4cnc(NCCCN5CCCC5=O)nc4n(CCCCN)c3=O)c(Cl)c2)n1` [compound 27, MR30]: the results for the “ΔTm MR30 (27)” value at MARK3, on CLK1 and at DMPK1 were 4.7 °C, -0.7 °C and -1.4 °C, respectively.

For `Cc1cccc(-c2ccc(-c3cc4cnc(Nc5cc(C(F)(F)F)ccc5C)nc4n(CCCCN)c3=O)c(Cl)c2)n1` [compound 28, 8-(4-Aminobutyl)-6-(2-chloro-4-(6-methylpyridin-2-yl)phenyl)-2-((2-methyl-5-(trifluoromethyl)phenyl)amino)pyrido[2,3-d]pyrimidin-7(8H)-one], the “ΔTm 28” value at MARK3 is 3.8 °C; on CLK1, 0.6 °C; on DMPK1 it was -2.4 °C.

Consider `Cc1cccc(-c2ccc(-c3cc4cnc(NCCCN5CCNCC5)nc4n(CCCCN)c3=O)c(Cl)c2)n1` [compound 29, 8-(4-Aminobutyl)-6-(2-chloro-4-(6-methylpyridin-2-yl)phenyl)-2-((3-(piperazin-1-yl)propyl)amino)pyrido[2,3-d]pyrimidin-7(8H)-one], for which the “ΔTm 29” value is 5.8 °C on MARK3, -0.3 °C at CLK1 and -1.3 °C at DMPK1.

For the compound `Cc1cccc(-c2ccc(-c3cc4cnc(Nc5ccc(CCCO)cc5)nc4n(CCCCN)c3=O)c(Cl)c2)n1` [compound 30, 8-(4-Aminobutyl)-6-(2-chloro-4-(6-methylpyridin-2-yl)phenyl)-2-((4-(3-hydroxypropyl)phenyl)amino)pyrido[2,3-d]pyrimidin-7(8H)-one], the “ΔTm 30” value was 11.6 °C at MARK3, -0.2 °C at CLK1 and -5.0 °C at DMPK1.

In the case of `Cc1cccc(-c2ccc(-c3cc4cnc(Nc5ccc(O)cc5)nc4n(CCCCN)c3=O)c(Cl)c2)n1` [compound 31, 8-(4-Aminobutyl)-6-(2-chloro-4-(6-methylpyridin-2-yl)phenyl)-2-((4-hydroxyphenyl)amino) pyrido[2,3-d]pyrimidin-7(8H)-one], the figures for the “ΔTm 31” value at MARK3, on CLK1 and at DMPK1 were 10.9 °C, 0.8 °C and -2.0 °C, respectively.

`Cc1cccc(-c2ccc(-c3cc4cnc(Nc5ccc(C)c(O)c5)nc4n(CCCCN)c3=O)c(Cl)c2)n1` [compound 32, 8-(4-Aminobutyl)-6-(2-chloro-4-(6-methylpyridin-2-yl)phenyl)-2-((3-hydroxy-4-methylphenyl)amino)pyrido[2,3-d]pyrimidin-7(8H)-one]: the “ΔTm 32” value is 10.9 °C at MARK3, 0.7 °C at CLK1 and -4.5 °C on DMPK1.
